Converted amounts (≈) assume the structure as drawn. Like-named read-outs stand apart in the source and are kept apart here.
What was measured:
K. pneumoniae DSM 26371 = test: MIC 50, broth micro-dilution, DSM strains; format: cell-based, Klebsiella pneumoniae
Source text: (§1) 3.2 Against Selected Bacteria of the ESKAPE Panel and Enterococcus faecalis (DSM Strains)
(§2) Tested reference compounds. Amikacin sulfate (Cat. No. 01693, Chem-Impex), Gentamicin sulfate (Cat. No. G4918, Sigma Aldrich).
(§3) Microbial strains. Enterococcus faecalis DSM 2570, Klebsiella pneumoniae DSM 26371, Acinetobacter baumannii DSM 105126, Enterobacter cloacae 3MRGN (clinical bronchial aspirate isolate).
(§4) Culture media and equipment. BBL™ Mueller Hinton Broth 2 (Lot. BCBW1143, Cat. No. 70192, Sigma); Trypcase Soy Blood-agar plates (Cat. No. 43001, Biomérieux); Cryoinstant (contains 15% glycerol; Cat. No. 822070ZA, VWR International); GasPak™ EZ Standard Incubation Container (Cat. No. 260671, Becton Dickinson); GasPak™ EZ Campy Container System Sachets (Cat. No. 260680, Becton Dickinson); 96-well deep well plate, 1 mL (Cat. No. 0030506.200, Eppendorf); Plate lid (Cat. No. 0030131.525, Eppendorf); 96-well plate, F-bottom (Cat. No. 260860, Nunc); Incubator (Sartorius Certomat BS-1); Laminar flow (Heraeus HS12); UV/VIS meter (Perkin Elmer Lambda Bio+); Platereader (Tecan Infinite M200 Pro).
(§5) Compound preparation. Compounds were prepared in MH2 media at a concentration of 5 mM and stored at 4° C. For testing, solutions of 128 μM were prepared in MH2, for tests against E. faecalis a solution of 512 μM was prepared. Out of these working solutions, 400 μL was transferred to wells in the first column of 96-well deep well plates. Each compound was transferred in triplicate. Plates were previously filled with 200 μL of MH2 media in all wells except for the wells in the first column. After compound and antibiotic addition, the compounds were serial two-fold diluted by transferring 200 μL from the first to the second column, then from the second to the third column and so on. Finally, 200 μL was removed from the last column.
(§6) Inoculum preparation. Microorganisms used were all revived from 15% glycerol storage in Croinstant tubes at −28° C. by plating them on blood agar plates. A. baumanni, and E. cloacae were grown aerobically at 37° C., E. faecalis was grown microaerophilically at 37° C., and K. pneumoniae was grown aerobically at 37° C. Plates were stored at 4° C. for up to two weeks, after which new plates were prepared from −28° C. A single colony was inoculated in MH2 media and grown at 37° C. and 200 rpm to an optical density (measured by UV/Vis spectroscopy) of 0.6-0.8 at 600 nm. Out of these suspensions, actual inoculums were prepared by diluting them to an optical density of 0.1 in MH2 media. From these inoculums, 200 μL was transferred to each well, resulting in a final compound concentration range of 64 μM-31.3 nM for, K. pneumoniae, A. baumanni, and E. cloacae, and 256 μM-125 nM for E. faecalis. Plates inoculated with E. faecalis were placed inside a GasPak™ Container System with GasPak™ Campy Container System sachets. All plates were incubated at 200 rpm for 18 h under the microorganism culturing conditions mentioned above.
(§7) MIC determination. After 18 h of growth, 200 μL was transferred to a 96-well F-bottom plate. The optical density was determined by a plate reader at 600 nm, with 10 s shaking before reading. Triplicate measurements were averaged, and a growth curve was plotted in Excel. The first column in which the growth reached half the value of maximum growth was determined as the MIC50 value for that particular compound.
(§8) MIC50. The MIC50 of a compound was assigned at which the bacterial growth reached half the value of maximum growth.

A. baumannii DSM 105126 = test: MIC 50, broth micro-dilution, DSM strains; format: cell-based, Acinetobacter baumannii
Source text: as §1, §2, §3, §4, §5, §6, §7, §8

[1] = Klebsiella pneumoniae, DSM26371, K. pneumoniae DSM 26371, read-out: MIC 50
[2] = Acinetobacter baumannii, DSM105126, read-out: MIC 50

N=C(N)NC1C(O)[C@@H](CO)OC(OC2C(F)[C@H](O[C@H]3OC(CN)[C@@H](O)CC3N)C(N)C[C@H]2NC(=O)[C@@H](O)CCN)[C@@H]1O (stereo partly shown) [ABX5006, Tobra-AHB-F-Gua]
MIC50 (K. pneumoniae DSM 26371; [1]): < 0.25 µM
MIC50 (A. baumannii DSM 105126; [2]): 0.0625 µM (≈ 0.0383 µg/mL)

N=C(NCCN)NC1C(O)[C@@H](CO)OC(OC2C(F)[C@H](O[C@H]3OC(CN)[C@@H](O)CC3N)C(N)C[C@H]2NC(=O)[C@@H](O)CCN)[C@@H]1O (stereo partly shown) [ABX5020, Tobra-AHB-F-Gua-2-amino-ethyl]
MIC50 (K. pneumoniae DSM 26371; [1]): 0.5 µM (≈ 0.328 µg/mL)
MIC50 (A. baumannii DSM 105126; [2]): 0.0625 to 0.125 µM (≈ 0.041 to 0.082 µg/mL)

NCC[C@H](O)C(=O)N[C@@H]1CC(N)[C@@H](O[C@H]2OC(CN)[C@@H](O)CC2N)[C@H](F)C1OC1O[C@H](CO)[C@@H](O)C(N)[C@H]1O (stereo partly shown) [ABX5024, Tobra-AHB-F]
MIC50 (K. pneumoniae DSM 26371; K. pneumoniae DSM 26371): 1 µM (≈ 0.571 µg/mL)
MIC50 (A. baumannii DSM 105126): 0.125 µM (≈ 0.0713 µg/mL)

CC(C)(C)CCNC(=N)NC1[C@@H](O)C(OC2[C@@H](F)[C@H](O[C@H]3OC(CN)[C@@H](O)CC3N)C(N)C[C@H]2NC(=O)[C@@H](O)CCN)O[C@H](CO)[C@H]1O (stereo partly shown) [ABX5025, Tobra-AHB-F-Gua 2-tBu-ethyl]
MIC50 (K. pneumoniae DSM 26371; [1]): 0.5 µM (≈ 0.348 µg/mL)
MIC50 (A. baumannii DSM 105126; [2]): 0.25 µM (≈ 0.174 µg/mL)

N=C(NC[C@@H]1CCCN1)NC1[C@@H](O)C(OC2[C@@H](F)[C@H](O[C@H]3OC(CN)[C@@H](O)CC3N)C(N)C[C@H]2NC(=O)[C@@H](O)CCN)O[C@H](CO)[C@H]1O (stereo partly drawn) [ABX5026, Tobra-AHB-F-Gua (S) pyrrolidine-2-yl-methyl]
MIC50 (K. pneumoniae DSM 26371; [1]): 0.125 µM (≈ 0.087 µg/mL)
MIC50 (A. baumannii DSM 105126; [2]): 0.0312 to 0.0625 µM (≈ 0.0217 to 0.0435 µg/mL)

N=C(NCC1CC1)NC1[C@@H](O)C(OC2[C@@H](F)[C@H](O[C@H]3OC(CN)[C@@H](O)CC3N)C(N)C[C@H]2NC(=O)[C@@H](O)CCN)O[C@H](CO)[C@H]1O (stereo partly shown) [ABX5027, Tobra-AHB-F-Gua cyclopropylmethyl]
MIC50 (K. pneumoniae DSM 26371; [1]): 0.125 µM (≈ 0.0833 µg/mL)
MIC50 (A. baumannii DSM 105126; [2]): 0.125 µM (≈ 0.0833 µg/mL)

N=C(NCCO)NC1[C@@H](O)C(OC2[C@@H](F)[C@H](O[C@H]3OC(CN)[C@@H](O)CC3N)C(N)C[C@H]2NC(=O)[C@@H](O)CCN)O[C@H](CO)[C@H]1O (stereo partly shown) [ABX5029, Tobra-AHB-F-Gua 2-hydroxy-ethyl]
MIC50 (K. pneumoniae DSM 26371; [1]): 0.125 to 0.25 µM (≈ 0.0821 to 0.164 µg/mL)
MIC50 (A. baumannii DSM 105126; [2]): 0.0625 µM (≈ 0.041 µg/mL)

N=C(NCCCN)NC1[C@@H](O)C(OC2[C@@H](F)[C@H](O[C@H]3OC(CN)[C@@H](O)CC3N)C(N)C[C@H]2NC(=O)[C@@H](O)CCN)O[C@H](CO)[C@H]1O (stereo partly shown) [ABX5030, Tobra-AHB-F-Gua-3-amino-propyl]
MIC50 (K. pneumoniae DSM 26371; [1]): 0.125 µM (≈ 0.0837 µg/mL)
MIC50 (A. baumannii DSM 105126; [2]): 0.0312 to 0.0625 µM (≈ 0.0209 to 0.0419 µg/mL)

CNCCNC(=N)NC1[C@@H](O)C(OC2[C@@H](F)[C@H](O[C@H]3OC(CN)[C@@H](O)CC3N)C(N)C[C@H]2NC(=O)[C@@H](O)CCN)O[C@H](CO)[C@H]1O (stereo partly shown) [ABX5038, Tobra-AHB-F-Gua 2-(methylamino)ethyl]
MIC50 (K. pneumoniae DSM 26371; [1]): 0.5 µM (≈ 0.335 µg/mL)
MIC50 (A. baumannii DSM 105126; [2]): 0.0625 to 0.125 µM (≈ 0.0419 to 0.0837 µg/mL)

N=C(NC[C@@H]1CCNC1)NC1[C@@H](O)C(OC2[C@@H](F)[C@H](O[C@H]3OC(CN)[C@@H](O)CC3N)C(N)C[C@H]2NC(=O)[C@@H](O)CCN)O[C@H](CO)[C@H]1O (stereo partly drawn) [ABX5039, Tobra-AHB-F-Gua (R) pyrrolidine-3-ylmethyl]
MIC50 (K. pneumoniae DSM 26371; [1]): 0.5 µM (≈ 0.348 µg/mL)
MIC50 (A. baumannii DSM 105126; [2]): 0.0625 µM (≈ 0.0435 µg/mL)

N=C(NC[C@@H]1CNCCO1)NC1[C@@H](O)C(OC2[C@@H](F)[C@H](O[C@H]3OC(CN)[C@@H](O)CC3N)C(N)C[C@H]2NC(=O)[C@@H](O)CCN)O[C@H](CO)[C@H]1O (stereo partly drawn) [ABX5040, Tobra-AHB-F-Gua (S) morpholin-2-yl methyl]
MIC50 (K. pneumoniae DSM 26371; [1]): 0.5 µM (≈ 0.356 µg/mL)
MIC50 (A. baumannii DSM 105126; [2]): 0.0625 to 0.125 µM (≈ 0.0445 to 0.089 µg/mL)

N=C(NCCCO)NC1[C@@H](O)C(OC2[C@@H](F)[C@H](O[C@H]3OC(CN)[C@@H](O)CC3N)C(N)C[C@H]2NC(=O)[C@@H](O)CCN)O[C@H](CO)[C@H]1O (stereo partly shown) [ABX5041, Tobra-AHB-F-Gua 3-hydroxy-propyl]
MIC50 (K. pneumoniae DSM 26371; [1]): 0.5 µM (≈ 0.335 µg/mL)
MIC50 (A. baumannii DSM 105126; [2]): 0.25 µM (≈ 0.168 µg/mL)

N=C(NC[C@H]1CCNC1)NC1[C@@H](O)C(OC2[C@@H](F)[C@H](O[C@H]3OC(CN)[C@@H](O)CC3N)C(N)C[C@H]2NC(=O)[C@@H](O)CCN)O[C@H](CO)[C@H]1O (stereo partly drawn) [ABX5042, Tobra-AHB-F-Gua (S) pyrrolidine-3-ylmethyl]
MIC50 (K. pneumoniae DSM 26371; [1]): 0.5 µM (≈ 0.348 µg/mL)
MIC50 (A. baumannii DSM 105126; [2]): 0.0625 µM (≈ 0.0435 µg/mL)

N=C(NC[C@H]1CNCCO1)NC1[C@@H](O)C(OC2[C@@H](F)[C@H](O[C@H]3OC(CN)[C@@H](O)CC3N)C(N)C[C@H]2NC(=O)[C@@H](O)CCN)O[C@H](CO)[C@H]1O (stereo partly drawn) [ABX5043, Tobra-AHB-F-Gua (R) morpholin-2-yl methyl]
MIC50 (K. pneumoniae DSM 26371; [1]): 0.5 µM (≈ 0.356 µg/mL)
MIC50 (A. baumannii DSM 105126; [2]): 0.0625 to 0.125 µM (≈ 0.0445 to 0.089 µg/mL)
